What was measured:
Format in all cases: cell-based, human
Settings in all cases: 96 h
A549 = experiment: Synergistic cytotoxicity test (MTS), A549
Experimental: (§1) Containing 10% bovine fetal serum, 1 mM of sodium pyruvate, 2 mM of L-glutamine, 50 U/mL of penicillin, 50 μg/ mL of streptomycin.
(§2) Human tumor cells: du145-human prostate cancer; MCF-7-human breast cancer; SK0V3-human ovarian carcinoma, HT-29-human colon cancer; A549-human non-small cell lung cancer (adenocarcinoma), H460-human non-small cell lung cancer (large cell carcinoma), and animal tumor cells: L1210-mice leukemia cells used in the following activity test experiments were all purchased from Shanghai An Yan Commercial Trade Co., Ltd.
(§3) MTS test method was used in cytotoxicity assay. The tumor cells of logarithmic phase were collected, and then the concentration of cell suspension was adjusted, 100 μL of the cell suspension was added to each well, the cells were placed at 1000-10000 cells/well (edge well filled with sterile PBS). Cells were incubated at 37° C. with 5% CO2 to make cell monolayer overspread the bottom of each well (96-well flat-bottomed microplate). 100 μL of certain concentration solution of a mixture of the fluorine-containing water-soluble platinum complex with other antitumor agents was added to each well. Each condition was measured in five replicates. The microplate was incubated at 37° C. with 5% CO2 for 96 h and checked with inverted microscope. MTS working reagent: To 2 mL of MTS (2 mg/mL, prepared by DPBS) was added 100 μL of PMS (1 mg/mL, prepared by DPBS). The cell culture medium was discarded after centrifugation, the cell culture plate was carefully washed 2-3 times with PBS. Before detecting the absorbance value (OD), to each sample containing well was added 100 μL of cell culture medium, then 20 μL of MTS working reagent was added. After incubation at 37° C. with 5% CO2 for 2 h, the OD (optical density) value was detected at 490 nm.
(§4) Each of above experiment was repeated five times, and the cell viability was calculated according to the mean OD values.
(§5) Cell Viability (%)=(treated group OD value/control group OD value)×100
(§6) Control group: the conditions are the same as the above without adding the tested drug mixture (100 μL of culture medium was added in stead), and finally the absorbance was measured at 490 nm to obtain the OD value of the tumor cells.
(§7) Drug Group-1: only the fluorine-containing water-soluble platinum complex was added under the above conditions to obtain cell viability of tumor cells.
(§8) Drug Group-2: only the other chemotherapeutic drug (active ingredient) was added under the above conditions to obtain cell viability of tumor cells.
(§9) Drug Combination Group: the fluorine-containing water-soluble platinum complex and other chemotherapeutic drugs were added simultaneously under the above conditions to obtain cell viability of tumor cell. (2) Evaluation Method:
(§10) When the fluorine-containing water-soluble platinum complexes used in combination with other chemotherapy drugs, the inhibition effect on cancer cell proliferation is enhanced or synergistic, and the effect was calculated using the following formula:
(§11) Combination Effect (%)={[(A1-X)+(A2-X)]/(A1-A2)|}×100
(§12) wherein, A1 is the cell viability of drug group-1, A2 is the cell viability of drug group-2, X is the cell viability of drug combination group, (A1-A2)| is the absolute value of the cell viability difference between the two groups.
(§13) Calculated according to the above formula, when the results of [Combination Effect (%)]>+100%, that means the effect of inhibition on cell proliferation is enhanced or synergistic (3) Experimental Result: […]

SK0V3 = experiment: Synergistic cytotoxicity test (MTS), SKOV3
Experimental: as §1, §2, §3, §4, §5, §6, §7, §8, §9, §10, §11, §12, §13

MCF7 = experiment: Synergistic cytotoxicity test (MTS), MCF7
Experimental: as §1, §2, §3, §4, §5, §6, §7, §8, §9, §10, §11, §12, §13

HT29 = experiment: Synergistic cytotoxicity test (MTS), HT29
Experimental: as §1, §2, §3, §4, §5, §6, §7, §8, §9, §10, §11, §12, §13

DU145 = experiment: Synergistic cytotoxicity test (MTS), DU145
Experimental: as §1, §2, §3, §4, §5, §6, §7, §8, §9, §10, §11, §12, §13

H460 = experiment: Synergistic cytotoxicity test (MTS), H460
Experimental: as §1, §2, §3, §4, §5, §6, §7, §8, §9, §10, §11, §12, §13

[1] = other chemotherapy drug (at its listed dosage) combined with Complex 2 (dosage: 1 μM)
[2] = other chemotherapy drug (at its listed dosage) combined with Complex 3 (dosage: 1 μM)
[3] = other chemotherapy drug (at its listed dosage) combined with Complex 2 (dosage: 1 μM), SLOV3
[4] = other chemotherapy drug (at its listed dosage) combined with Complex 3 (dosage: 1 μM), SlOV3
[5] = other chemotherapy drug (at its listed dosage) combined with Complex 5 (dosage: 1 μM), SLOV3
[6] = other chemotherapy drug (at its listed dosage) combined with Complex 6 (dosage: 1 μM), SLOV3
[7] = other chemotherapy drug (at its listed dosage) combined with Complex 5 (dosage: 1 μM)
[8] = other chemotherapy drug (at its listed dosage) combined with Complex 6 (dosage: 1 μM)

| SMILES | the effect of drug combination (Combination Effect) (A549; [1]) | the effect of drug combination (Combination Effect) (A549; [2]) | the effect of drug combination (Combination Effect) (SK0V3; [3]) | the effect of drug combination (Combination Effect) (SK0V3; [4]) | the effect of drug combination (Combination Effect) (SK0V3; [5]) | the effect of drug combination (Combination Effect) (SK0V3; [6]) | the effect of drug combination (Combination Effect) (MCF7; [1]) | the effect of drug combination (Combination Effect) (MCF7; [2]) | the effect of drug combination (Combination Effect) (MCF7; [7]) | the effect of drug combination (Combination Effect) (MCF7; [8]) | the effect of drug combination (Combination Effect) (HT29; [1]) | the effect of drug combination (Combination Effect) (HT29; [2]) | the effect of drug combination (Combination Effect) (HT29; [7]) | the effect of drug combination (Combination Effect) (HT29; [8]) | the effect of drug combination (Combination Effect) (DU145; [1]) | the effect of drug combination (Combination Effect) (DU145; [2]) | the effect of drug combination (Combination Effect) (DU145; [7]) | the effect of drug combination (Combination Effect) (DU145; [8]) | the effect of drug combination (Combination Effect) (H460; [7]) | the effect of drug combination (Combination Effect) (H460; [8]) |
| --- | --- | --- | --- | --- | --- | --- | --- | --- | --- | --- | --- | --- | --- | --- | --- | --- | --- | --- | --- | --- |
| CC(=O)O[C@H]1C(=O)[C@@]2(C)[C@H]([C@H](OC(=O)c3ccccc3)[C@]3(O)C[C@H](OC(=O)[C@H](O)[C@@H](NC(=O)c4ccccc4)c4ccccc4)C(C)=C1C3(C)C)[C@]1(OC(C)=O)CO[C@@H]1C[C@@H]2O [Paclitaxel] | ⊚ (⊚ represents the effect of drug combination > 300%) | ⊚ (⊚ represents the effect of drug combination > 300%) | ⊚ (⊚ represents the effect of drug combination > 300%) | ⊚ (⊚ represents the effect of drug combination > 300%) | ⊚ (⊚ represents the effect of drug combination > 300%) | ⊚ (⊚ represents the effect of drug combination > 300%) | ⊚ (⊚ represents the effect of drug combination > 300%) | ⊚ (⊚ represents the effect of drug combination > 300%) | ⊚ (⊚ represents the effect of drug combination > 300%) | ⊚ (⊚ represents the effect of drug combination > 300%) | ⊚ (⊚ represents the effect of drug combination > 300%) | ⊚ (⊚ represents the effect of drug combination > 300%) | ⊚ (⊚ represents the effect of drug combination > 300%) | ○ (○ represents: 100% < the effect of drug combination < 300%) | ○ (○ represents: 100% < the effect of drug combination < 300%) | ⊚ (⊚ represents the effect of drug combination > 300%) | ⊚ (⊚ represents the effect of drug combination > 300%) | ⊚ (⊚ represents the effect of drug combination > 300%) | ⊚ (⊚ represents the effect of drug combination > 300%) | ⊚ (⊚ represents the effect of drug combination > 300%) |
| O=c1[nH]cc(F)c(=O)[nH]1 [5-Fluorouracil] | ⊚ (⊚ represents the effect of drug combination > 300%) | ⊚ (⊚ represents the effect of drug combination > 300%) | ⊚ (⊚ represents the effect of drug combination > 300%) | ⊚ (⊚ represents the effect of drug combination > 300%) | ⊚ (⊚ represents the effect of drug combination > 300%) | ⊚ (⊚ represents the effect of drug combination > 300%) | ⊚ (⊚ represents the effect of drug combination > 300%) | ⊚ (⊚ represents the effect of drug combination > 300%) | ⊚ (⊚ represents the effect of drug combination > 300%) | ⊚ (⊚ represents the effect of drug combination > 300%) | ⊚ (⊚ represents the effect of drug combination > 300%) | ⊚ (⊚ represents the effect of drug combination > 300%) | ⊚ (⊚ represents the effect of drug combination > 300%) | ⊚ (⊚ represents the effect of drug combination > 300%) | ⊚ (⊚ represents the effect of drug combination > 300%) | ⊚ (⊚ represents the effect of drug combination > 300%) | ⊚ (⊚ represents the effect of drug combination > 300%) | ⊚ (⊚ represents the effect of drug combination > 300%) | ⊚ (⊚ represents the effect of drug combination > 300%) | ⊚ (⊚ represents the effect of drug combination > 300%) |
| Nc1ccn([C@@H]2O[C@H](CO)[C@@H](O)C2(F)F)c(=O)n1 [Gemcitabine] | ⊚ (⊚ represents the effect of drug combination > 300%) | ⊚ (⊚ represents the effect of drug combination > 300%) | ⊚ (⊚ represents the effect of drug combination > 300%) | ○ (○ represents: 100% < the effect of drug combination < 300%) | ○ (○ represents: 100% < the effect of drug combination < 300%) | ○ (○ represents: 100% < the effect of drug combination < 300%) | ⊚ (⊚ represents the effect of drug combination > 300%) | ⊚ (⊚ represents the effect of drug combination > 300%) | ⊚ (⊚ represents the effect of drug combination > 300%) | ⊚ (⊚ represents the effect of drug combination > 300%) | ⊚ (⊚ represents the effect of drug combination > 300%) | ⊚ (⊚ represents the effect of drug combination > 300%) | ⊚ (⊚ represents the effect of drug combination > 300%) | ⊚ (⊚ represents the effect of drug combination > 300%) | ⊚ (⊚ represents the effect of drug combination > 300%) | ○ (○ represents: 100% < the effect of drug combination < 300%) | ○ (○ represents: 100% < the effect of drug combination < 300%) | ○ (○ represents: 100% < the effect of drug combination < 300%) | ⊚ (⊚ represents the effect of drug combination > 300%) | ⊚ (⊚ represents the effect of drug combination > 300%) |

— patent publication US20140349955A1, “USE OF FLUORINE-CONTAINING WATER SOLUBLE PLATINUM COMPLEX IN PREPARING DRUGS FOR PREVENTION AND TREATMENT OF CANCERS” (GUDUI BIOPHARMA TECHNOLOGY INC., priority 2011, published 2014)
